The text below walks through data of publication PMC9271792 (Frontiers in Endocrinology, 2022).

For orientation: IC50 means the point on the concentration scale where inhibition reaches its midpoint. Higher therefore signals a need for much substance.

The test system of data set [1] is IGF-1R. As to conditions: cited from earlier work.
The test system of data set [2] is IR. Conditions: compared to insulin; ref [20], [21]; cited from earlier work.
The subject of data set [3] is IR. As to conditions: ref [20]; cited from earlier work.
The test system of a further data set is mitogenic signalling. Conditions: ref [20], cited from earlier work.
The subject of data set [4] is IR. Conditions: cited from earlier work. The source says:
This is similar to the poorly mitogenic S597 peptide, which also promoted slowe ...

The subject of data set [5] is Akt / GSK-3β / S6 phosphorylation in L6 IR-A cells. Put plainly: Western blot time-course, PI3K/Akt pathway, L6 IR-A. It counts as cell-based, rat cells; human IR-A. Conditions: 10 nM; for time to optimal phosphorylation of Akt (Ser473, Thr308) and GSK-3β: maximal up to t = 30 min. (In general: Immunoblotting shows a protein as a band on a membrane.)
Procedure: (§2) R/^-IR-B (80,000 cells/well) or L6 IR-A cells (240,000 cells/well) were seeded in 6-well plates and allowed to grow to confluence (~ 48 hours). Prior to stimulation, cells were serum starved in SFM/1% BSA for 4 h. […] Lysates were scraped from the well, spun at 13,000 rpm for 3 min at 0°C to remove cell debris and stored at -80°C. Lysate protein concentrations were quantified using Bio-Rad DC™ Protein Assay and 20μg of each sample was separated in 10% glycine gels under reducing conditions. Transferred blots were blocked for 1 h at room temperature in TBST containing 3% BSA and probed with primary antibodies (Pathscan Antibody, pAkt(Thr308), pGSK(Ser9), pAS160(Thr642)) in blocking solution (TBST containing 3% BSA) overnight at 4°C. All blots were also probed with anti-β-tubulin as a loading control. Blots were washed six times for 5 min each in TBST then probed with either HRP-conjugated (dose-response) or fluorophore-conjugated (time-course) secondary antibodies for 1 hour at room temperature. The washing was then repeated.
(§3) Dose response blots were developed in ECL reagent according to manufacturer’s instruction and imaged in Fujiflim LAS-4000 Luminescent Image Analyzer. Time course blots were imaged with an Odyssey® CLx Imaging System. All blots were performed at least three times. All data were analysed with LI-COR Image Studio™ software and each band intensity was normalized to tubulin of its respective lane.
In data set [6] the target is T1, IGF-1R (Homo sapiens, UniProt P08069).
T1 construct: expressed in transfected cells; host or cells: P6 cells (BALB/c3T3 mouse fibroblasts overexpressing human IGF-1R); Triton X-100 lysate captured on anti-IGF-1R antibody 24-31
Put plainly: Kinase receptor activation assay (KIRA), IGF-1R. Format: cell-based. As to conditions: 10 min stimulation, P6 cells.

The subject of another data set is IR-A. As to the kind of experiment: IR-A receptor internalization. It counts as cell-based, human. As to conditions: 10 nM; for IR-A internalization (in words): 2 hours post-stimulation; for IR-A remaining on the cell surface: within 2 h, % of surface/total receptor normalised to SFM t = 0. As to the method: All data are the mean ± S.E.M. n = at least 3 independent experiments. Error bars are shown when greater than the size of the symbols.
(§1) Assays were performed in triplicate in at least three independent experiments.

Data set [7] concerns ERK 1/2 / p90RSK phosphorylation in L6 IR-A cells. As to the kind of experiment: Western blot time-course, MAPK pathway, L6 IR-A. Format: cell-based, rat cells; human IR-A. As to conditions: 10 nM, then reducing between t = 10 – 30 min.
Procedure: as §2, §3
The target of data set [8] is T1, IGF-1R. Conditions: % of native insulin; ref [21], [23]; cited from earlier work.
In another data set the test system is C57BL6 male mice. Put plainly: Insulin tolerance test. Conditions: 0.75 IU/kg ip, chow fed mice, non-fasting, 2 hours post-treatment. Format: in vivo, mouse.
For data set [9], the system named is L6 rat skeletal myoblasts overexpressing human IR-A (L6 IR-A cells). As to the kind of experiment: DNA synthesis assay (EdU incorporation). Format: cell-based. Conditions: 18 h, equipotent within fold stated. As to the method:
as §1

The next data set deals with T2, IR isoform B (IR-B) (Homo sapiens, UniProt P06213).
T2 construct: expressed in transfected cells; host or cells: R-IR-B cells (IGF-1R knockout mouse embryonic fibroblasts over-expressing human IR-B); Triton X-100 lysate captured on anti-IR antibody 83-7
Conditions: compared to insulin; ref [21]–[23], [32]; cited from earlier work.

In data set [10] the test system is insulin receptor isoform A (IR-A). As to conditions: compared to native insulin; ref [21]; cited from earlier work.
Data set [11] has as its target T1, IGF-1R. As to the kind of experiment: Competition binding assay, europium-labelled IGF-I, IGF-1R. Here is the method:
Results are expressed as a percentage of binding in the absence of competing ligand (%B/B0). […] All data are the mean ± S.E.M. n = at least 3 independent experiments. Error bars are shown when greater than the size of the symbols.
Human IR isoform A, isoform B and IGF-1R were solubilized from R^-IR-A, R^-IR-B and P6 cells, respectively. Briefly, cells were serum starved in serum-free medium (SFM) containing 1% (w/v) BSA for 4 h before lysis in ice-cold lysis buffer (20 mM HEPES, 150 mM NaCl, 1.5mM MgCl2, 10% (v/v) glycerol, 1% (v/v) Triton X-100, 1mM EGTA, and 1 mM phenylmethylsulfonyl fluoride, pH 7.5) for 1 h at 4°C. Lysates were centrifuged for 10 min at 2,200g, and then 100 µL of lysate was added per well to a white Greiner Lumitrac 600 96-well plate (16 h at 4°C) previously coated with anti-IR antibody 83-7 or anti-IGF-1R antibody 24-31 (250 ng/well in bicarbonate buffer, pH 9.2). […] Wells were washed with 20 mM Tris, pH 7.4, 150 mM NaCl (TBS) and 0.1% (v/v) Tween 20 (TBST). Then 100 µl/well DELFIA enhancement solution (PerkinElmer Life Sciences) was added. After 10 min, time-resolved fluorescence was measured using 340-nm excitation and 612-nm emission filters with a BMG Lab Technologies Polarstar fluorometer (Mornington, Australia). Assays were performed in triplicate in at least three independent experiments.

The test system of another data set is IR-B. As to the kind of experiment: Kinase receptor activation assay (KIRA), IR-B. It counts as cell-based, human. Conditions: 10 min stimulation, Eu-PY20 detection.
In another data set the target is T3, IR isoform A (IR-A) (Homo sapiens, UniProt P06213).
T3 construct: expressed in transfected cells; host or cells: R-IR-A cells (IGF-1R knockout mouse embryonic fibroblasts over-expressing human IR-A); Triton X-100 lysate captured on anti-IR antibody 83-7
Conditions: compared to insulin; ref [21]–[23], [32]; cited from earlier work.

Read-outs that look alike come from different tables or passages of the source. Bounds are passed on as bounds.

T3 sequence (P06213 28-1370 isoform P06213-2 limits assumed): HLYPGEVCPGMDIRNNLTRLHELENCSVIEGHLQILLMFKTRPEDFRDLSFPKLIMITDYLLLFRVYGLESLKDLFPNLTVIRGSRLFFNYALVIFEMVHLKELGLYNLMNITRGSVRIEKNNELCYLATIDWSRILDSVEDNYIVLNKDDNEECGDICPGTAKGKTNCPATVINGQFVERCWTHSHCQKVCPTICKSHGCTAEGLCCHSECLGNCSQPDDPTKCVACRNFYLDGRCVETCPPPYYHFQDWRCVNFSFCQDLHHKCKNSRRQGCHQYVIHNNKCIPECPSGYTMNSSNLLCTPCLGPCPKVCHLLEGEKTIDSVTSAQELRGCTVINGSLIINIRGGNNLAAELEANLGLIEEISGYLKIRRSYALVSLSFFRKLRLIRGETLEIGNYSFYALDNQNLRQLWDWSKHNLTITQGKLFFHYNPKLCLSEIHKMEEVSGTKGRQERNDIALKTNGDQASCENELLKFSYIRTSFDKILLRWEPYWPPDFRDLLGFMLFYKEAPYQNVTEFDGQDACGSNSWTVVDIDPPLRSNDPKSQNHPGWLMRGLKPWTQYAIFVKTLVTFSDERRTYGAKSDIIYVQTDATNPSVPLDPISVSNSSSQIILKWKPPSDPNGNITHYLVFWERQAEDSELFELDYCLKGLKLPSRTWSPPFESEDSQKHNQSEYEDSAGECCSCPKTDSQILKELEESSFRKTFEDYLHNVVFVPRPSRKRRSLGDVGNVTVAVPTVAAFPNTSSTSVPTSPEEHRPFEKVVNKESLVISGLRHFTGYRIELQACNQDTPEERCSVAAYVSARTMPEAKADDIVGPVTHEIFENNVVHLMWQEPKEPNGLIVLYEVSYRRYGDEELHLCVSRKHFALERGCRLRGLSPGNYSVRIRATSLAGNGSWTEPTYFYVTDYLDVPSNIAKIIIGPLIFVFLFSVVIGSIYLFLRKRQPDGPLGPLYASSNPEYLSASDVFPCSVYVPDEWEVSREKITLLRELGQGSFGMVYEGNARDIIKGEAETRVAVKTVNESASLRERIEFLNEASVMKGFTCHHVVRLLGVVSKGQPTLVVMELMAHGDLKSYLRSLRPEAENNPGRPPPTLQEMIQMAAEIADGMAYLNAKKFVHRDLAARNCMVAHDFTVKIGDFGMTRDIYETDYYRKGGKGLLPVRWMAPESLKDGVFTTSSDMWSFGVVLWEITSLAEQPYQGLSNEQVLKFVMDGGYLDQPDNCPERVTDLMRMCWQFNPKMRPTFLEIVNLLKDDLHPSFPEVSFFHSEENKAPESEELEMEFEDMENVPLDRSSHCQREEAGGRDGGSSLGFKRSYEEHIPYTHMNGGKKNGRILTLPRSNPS
T3 sequence (P06213 763-1382 partner limits assumed): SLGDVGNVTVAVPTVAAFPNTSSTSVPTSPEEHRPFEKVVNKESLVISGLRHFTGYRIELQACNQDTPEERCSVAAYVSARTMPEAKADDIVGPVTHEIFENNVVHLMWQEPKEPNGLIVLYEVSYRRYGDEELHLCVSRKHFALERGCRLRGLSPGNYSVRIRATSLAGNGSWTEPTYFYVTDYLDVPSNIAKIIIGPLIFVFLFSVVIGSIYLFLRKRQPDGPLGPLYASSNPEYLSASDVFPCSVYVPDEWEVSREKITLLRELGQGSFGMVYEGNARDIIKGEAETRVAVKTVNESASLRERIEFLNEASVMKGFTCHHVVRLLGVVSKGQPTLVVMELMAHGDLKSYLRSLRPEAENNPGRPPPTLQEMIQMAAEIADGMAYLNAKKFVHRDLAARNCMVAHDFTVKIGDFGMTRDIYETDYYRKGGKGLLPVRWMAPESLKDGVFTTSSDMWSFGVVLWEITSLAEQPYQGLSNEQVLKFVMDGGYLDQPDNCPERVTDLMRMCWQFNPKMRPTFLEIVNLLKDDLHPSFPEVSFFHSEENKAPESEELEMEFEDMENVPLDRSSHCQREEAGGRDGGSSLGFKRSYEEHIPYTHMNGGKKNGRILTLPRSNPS
T2 sequence (P06213 28-758 limits assumed): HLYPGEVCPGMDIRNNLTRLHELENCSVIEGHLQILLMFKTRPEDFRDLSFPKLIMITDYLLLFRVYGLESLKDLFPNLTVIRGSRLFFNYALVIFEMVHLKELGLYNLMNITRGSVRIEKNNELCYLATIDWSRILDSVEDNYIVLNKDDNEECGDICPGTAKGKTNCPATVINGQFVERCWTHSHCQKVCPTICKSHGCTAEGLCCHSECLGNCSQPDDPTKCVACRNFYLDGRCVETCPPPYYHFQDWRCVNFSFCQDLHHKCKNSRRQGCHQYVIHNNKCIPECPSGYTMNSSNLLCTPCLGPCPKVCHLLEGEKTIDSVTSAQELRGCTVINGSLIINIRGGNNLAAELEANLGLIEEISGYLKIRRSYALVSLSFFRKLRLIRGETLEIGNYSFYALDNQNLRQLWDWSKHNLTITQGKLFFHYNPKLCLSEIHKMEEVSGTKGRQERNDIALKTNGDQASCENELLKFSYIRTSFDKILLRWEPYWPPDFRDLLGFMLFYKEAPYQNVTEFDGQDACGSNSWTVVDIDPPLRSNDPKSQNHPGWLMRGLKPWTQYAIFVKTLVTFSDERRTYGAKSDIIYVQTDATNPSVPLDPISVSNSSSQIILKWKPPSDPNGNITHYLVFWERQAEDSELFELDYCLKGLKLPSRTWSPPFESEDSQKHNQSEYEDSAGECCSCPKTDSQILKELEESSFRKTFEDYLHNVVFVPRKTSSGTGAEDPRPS
T2 sequence (P06213 763-1382 partner limits assumed): as the sequence (P06213 763-1382 partner limits assumed) above

Regarding HisB10Asp insulin [insulin X10], the “IGF-1R binding affinity (in words)” value in the data set with IGF-1R [1] (compared to insulin, ref [20], [21]) is reported as “increased binding affinity for the growth-promoting insulin-like growth factor receptor 1 (IGF-1R)”. The “rate of dissociation from the IR (in words)” value with IR [2] is listed as “reduced rate of dissociation from the IR compared to insulin”. Besides, in the data set on IR [3], the “receptor internalization (in words)” value was “increased rate of receptor internalization”. In addition, in the data set with mitogenic signalling, the “mitogenic signalling (in words)” value was “enhanced mitogenic signalling”. The “phosphorylation of IR-A Tyr960, Tyr1146 and Tyr1322 (in words)” value in the data set with IR [4] (compared to insulin, ref [32]) was “increased phosphorylation of IR-A Tyr960, Tyr1146 and Tyr1322 compared to insulin”. Further, in the data set with IR [4] (ref [20]), the “phosphorylation of the IR (in words)” value is listed as “sustained phosphorylation of the IR”.
For human insulin, the “kinetics of activation of the PI3K/Akt pathway (in words)” value in data set [5] (0–30 min, p-Akt Ser473, p-Akt Thr308, p-GSK3β, p-S6) is on record as “essentially the same”. Besides, the “time to optimal phosphorylation of Akt (Ser473, Thr308) and GSK-3β” value in data set [5] is no more than 20 s. The “IGF-1R activation (in words)” value with IGF-1R [6] was “equipotent but poorly activated the IGF-1R”. In the data set with IR-A, the “IR-A internalization (in words)” value is “rapidly induced receptor internalization post-stimulation (evident within 10 min)” and the “IR-A remaining on the cell surface” value is recorded as 60%. Moreover, in [7], the “time to maximal phosphorylation of ERK1/2 and p90RSK” value is 10 min.
As to insulin glargine, the “IGF-1R affinity, literature range” value at IGF-1R [8] is 460–650%. Also, in the data set on C57BL6 male mice, the “blood glucose lowering (in words)” value is “no statistical difference”. Further, in [5], the “time to optimal phosphorylation of Akt (Ser473, Thr308) and GSK-3β” value is listed as no more than 20 s. Further, in data set [9], the “DNA synthesis, potency difference from native insulin” value was no more than 2 fold. Also, at IR isoform B (IR-B), the “IR-B binding, literature range” value is 50-85%. For the same substance, the “IR-A dissociation kinetics (in words)” value in data set [10] is “dissociation kinetics do not differ from native insulin”. Moreover, the “IGF-1R affinity compared to native insulin” value on IGF-1R [11] (% of native insulin) is 480%. This substance had an IC50 with IGF-1R [11] (competition for europium-labelled IGF-I, solubilized receptor from P6 cells, 16 h at 4°C, mean ± S.E.M., n = 3 or more) of 6.71 ± 3.9 nM. Further, in the data set with IR-B, the “IR-B activation (in words)” value was “potency similar to native insulin”. The “IR-A binding, literature range” value on IR isoform A (IR-A) is reported as 40-86%. In the data set with IR-A, the “IR-A internalization (in words)” value is listed as “rapidly induced receptor internalization post-stimulation (evident within 10 min)” and the “IR-A remaining on the cell surface” value was 60%. The “IGF-1R binding affinity (in words)” value with IGF-1R [1] (compared to native insulin, ref [22]) is reported as “binds to the IGF-1R with higher affinity”. For the same substance, in data set [7], the “time to maximal phosphorylation of ERK1/2 and p90RSK” value was determined as 10 min. In the data set on mitogenic signalling (compared to native insulin, [23]), the “mitogenic cell signalling (in words)” value is reported as “equipotent in promoting mitogenic cell signalling”.
